Source: ChEMBL document CHEMBL1909046, “DrugMatrix in vitro pharmacology data”

Assays:
[1] = target: Sigma non-opioid intracellular receptor 1 (Homo sapiens, UniProt Q99720); test: DRUGMATRIX: Sigma1 radioligand binding (ligand: [3H] Haloperidol); format: cell membranes, Jurkat, Membrane; settings: jurkat; Not Active = under 50% inhibition at 10 µM
Insulin receptor = Insulin receptor (Rattus norvegicus, UniProt P15127); format: cell membranes, Wistar, Liver, Membrane; also: in other assays of this panel Not Active means under 50% inhibition at 10 µM
Leukotriene C4 synthase = target: T1, Leukotriene C4 synthase (Cavia porcellus, UniProt A6XA80); format: tissue-based, Lung;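 also: enzyme inhibition assay of leukotriene C4 synthase, using LTA4 as the substrate; in other assays of this panel Not Active means under 50% inhibition at 10 µM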
T1 sequence (A6XA80 whole entry): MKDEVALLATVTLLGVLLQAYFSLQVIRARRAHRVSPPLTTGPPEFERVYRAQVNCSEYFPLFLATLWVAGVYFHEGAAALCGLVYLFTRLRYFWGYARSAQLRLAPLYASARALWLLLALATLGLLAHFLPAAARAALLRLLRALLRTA

[2] = target: Delta-type opioid receptor (Homo sapiens, UniProt P41143); format: cell membranes, HEK293, Membrane; settings: hek293; also: in other assays of this panel Not Active means under 50% inhibition at 10 µM
Mu-type opioid receptor = Mu-type opioid receptor (Homo sapiens, UniProt P35372); test: DRUGMATRIX: Opiate mu (OP3, MOP) radioligand binding (ligand: [3H] Diprenorphine); format: cell membranes, CHO-K1, Membrane; settings: cho-k1; Not Active = under 50% inhibition at 10 µM
[3] = target: T2, Angiotensin-converting enzyme (Oryctolagus cuniculus, UniProt P12822); format: tissue-based, Lung;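 also: enzymatic inhibition of angiotensin-converting enzyme measured with FAPGG as the substrate; in other assays of this panel Not Active means under 50% inhibition at 10 µM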
T2 sequence (P12822 whole entry): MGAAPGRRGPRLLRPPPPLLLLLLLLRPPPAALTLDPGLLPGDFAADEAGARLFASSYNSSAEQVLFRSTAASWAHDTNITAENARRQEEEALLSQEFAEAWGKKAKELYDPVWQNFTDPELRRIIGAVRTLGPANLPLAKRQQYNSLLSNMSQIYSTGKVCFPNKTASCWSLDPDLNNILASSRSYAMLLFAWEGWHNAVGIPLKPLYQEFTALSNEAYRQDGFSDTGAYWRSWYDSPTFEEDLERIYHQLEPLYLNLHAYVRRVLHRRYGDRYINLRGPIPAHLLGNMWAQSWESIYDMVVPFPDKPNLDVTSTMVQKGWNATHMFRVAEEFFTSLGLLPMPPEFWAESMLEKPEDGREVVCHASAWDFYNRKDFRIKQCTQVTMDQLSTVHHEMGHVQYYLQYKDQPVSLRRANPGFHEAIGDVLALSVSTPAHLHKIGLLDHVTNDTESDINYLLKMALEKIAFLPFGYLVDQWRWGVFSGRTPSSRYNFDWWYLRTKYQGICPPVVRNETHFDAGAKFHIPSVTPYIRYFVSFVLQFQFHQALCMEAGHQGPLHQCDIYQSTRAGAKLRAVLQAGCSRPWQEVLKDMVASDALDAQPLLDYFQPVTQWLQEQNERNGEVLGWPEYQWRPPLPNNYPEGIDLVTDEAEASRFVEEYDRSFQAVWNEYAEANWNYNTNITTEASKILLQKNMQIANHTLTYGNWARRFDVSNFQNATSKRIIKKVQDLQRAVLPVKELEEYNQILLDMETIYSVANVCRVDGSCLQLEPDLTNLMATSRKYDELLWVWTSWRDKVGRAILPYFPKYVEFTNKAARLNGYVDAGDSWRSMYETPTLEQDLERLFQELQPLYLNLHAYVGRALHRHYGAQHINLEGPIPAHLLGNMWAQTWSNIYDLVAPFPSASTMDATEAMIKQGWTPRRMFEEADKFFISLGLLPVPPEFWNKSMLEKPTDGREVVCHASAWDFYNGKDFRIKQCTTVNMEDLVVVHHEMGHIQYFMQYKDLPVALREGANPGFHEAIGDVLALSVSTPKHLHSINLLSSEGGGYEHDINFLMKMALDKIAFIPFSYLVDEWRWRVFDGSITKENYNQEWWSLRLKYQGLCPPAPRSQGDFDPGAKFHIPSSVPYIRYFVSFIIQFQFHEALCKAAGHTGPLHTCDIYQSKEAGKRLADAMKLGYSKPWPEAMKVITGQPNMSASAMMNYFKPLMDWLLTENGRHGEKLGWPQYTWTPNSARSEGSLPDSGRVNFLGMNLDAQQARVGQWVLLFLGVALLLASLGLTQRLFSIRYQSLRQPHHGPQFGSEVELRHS

Cytochrome P450 2A6 = target: T3, Cytochrome P450 2A6 (Homo sapiens, UniProt P11509); settings: bti-tn-5b1-4; also: in other assays of this panel Not Active means under 50% inhibition at 10 µM
T3 sequence (P11509 whole entry): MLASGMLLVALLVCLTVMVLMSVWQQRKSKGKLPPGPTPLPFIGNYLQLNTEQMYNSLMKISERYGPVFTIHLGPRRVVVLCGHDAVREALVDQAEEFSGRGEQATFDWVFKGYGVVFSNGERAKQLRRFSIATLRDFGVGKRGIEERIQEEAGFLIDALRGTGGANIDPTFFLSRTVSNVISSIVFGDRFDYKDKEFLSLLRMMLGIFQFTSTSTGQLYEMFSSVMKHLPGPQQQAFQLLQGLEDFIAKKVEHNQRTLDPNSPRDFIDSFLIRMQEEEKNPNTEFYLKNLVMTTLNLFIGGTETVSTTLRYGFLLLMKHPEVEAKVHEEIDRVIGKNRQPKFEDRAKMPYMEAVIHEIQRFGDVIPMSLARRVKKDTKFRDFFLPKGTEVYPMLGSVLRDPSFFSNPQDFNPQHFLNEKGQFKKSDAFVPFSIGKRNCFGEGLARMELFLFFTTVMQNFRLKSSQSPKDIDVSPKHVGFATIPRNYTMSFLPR

Chain of Mu-type opioid receptor (P35372 whole entry): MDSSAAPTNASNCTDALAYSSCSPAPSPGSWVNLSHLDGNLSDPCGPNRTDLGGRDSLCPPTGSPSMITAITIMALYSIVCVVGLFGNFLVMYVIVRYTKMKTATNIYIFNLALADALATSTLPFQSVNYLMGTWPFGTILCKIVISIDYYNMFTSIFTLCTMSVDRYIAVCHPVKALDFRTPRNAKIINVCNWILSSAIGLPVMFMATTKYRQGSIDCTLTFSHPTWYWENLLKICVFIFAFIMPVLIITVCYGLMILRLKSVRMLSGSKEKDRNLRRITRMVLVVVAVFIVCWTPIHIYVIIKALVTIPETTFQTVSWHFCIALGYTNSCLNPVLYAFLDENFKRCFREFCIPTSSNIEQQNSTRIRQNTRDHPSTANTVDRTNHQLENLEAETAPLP
Chain of Insulin receptor (P15127 27-759 limits assumed): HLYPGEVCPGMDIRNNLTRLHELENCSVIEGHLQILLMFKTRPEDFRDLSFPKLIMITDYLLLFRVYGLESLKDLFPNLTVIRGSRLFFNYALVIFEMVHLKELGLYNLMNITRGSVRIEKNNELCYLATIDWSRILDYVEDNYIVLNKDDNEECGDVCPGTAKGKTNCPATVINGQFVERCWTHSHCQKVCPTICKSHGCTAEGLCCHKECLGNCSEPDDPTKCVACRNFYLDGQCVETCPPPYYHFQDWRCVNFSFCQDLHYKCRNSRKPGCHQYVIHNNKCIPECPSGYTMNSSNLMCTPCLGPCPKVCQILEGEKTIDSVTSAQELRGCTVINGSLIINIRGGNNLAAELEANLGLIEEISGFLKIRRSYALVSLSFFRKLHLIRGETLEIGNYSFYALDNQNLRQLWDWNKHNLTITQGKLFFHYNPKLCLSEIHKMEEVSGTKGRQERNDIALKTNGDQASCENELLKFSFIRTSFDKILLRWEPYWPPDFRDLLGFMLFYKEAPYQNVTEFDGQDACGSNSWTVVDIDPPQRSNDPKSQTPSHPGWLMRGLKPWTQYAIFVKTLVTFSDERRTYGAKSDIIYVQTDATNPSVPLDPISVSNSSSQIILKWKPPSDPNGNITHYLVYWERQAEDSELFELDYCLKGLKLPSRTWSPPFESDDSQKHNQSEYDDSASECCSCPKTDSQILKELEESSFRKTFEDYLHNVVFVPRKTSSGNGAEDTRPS
Chain of Insulin receptor (P15127 764-1383 limits assumed): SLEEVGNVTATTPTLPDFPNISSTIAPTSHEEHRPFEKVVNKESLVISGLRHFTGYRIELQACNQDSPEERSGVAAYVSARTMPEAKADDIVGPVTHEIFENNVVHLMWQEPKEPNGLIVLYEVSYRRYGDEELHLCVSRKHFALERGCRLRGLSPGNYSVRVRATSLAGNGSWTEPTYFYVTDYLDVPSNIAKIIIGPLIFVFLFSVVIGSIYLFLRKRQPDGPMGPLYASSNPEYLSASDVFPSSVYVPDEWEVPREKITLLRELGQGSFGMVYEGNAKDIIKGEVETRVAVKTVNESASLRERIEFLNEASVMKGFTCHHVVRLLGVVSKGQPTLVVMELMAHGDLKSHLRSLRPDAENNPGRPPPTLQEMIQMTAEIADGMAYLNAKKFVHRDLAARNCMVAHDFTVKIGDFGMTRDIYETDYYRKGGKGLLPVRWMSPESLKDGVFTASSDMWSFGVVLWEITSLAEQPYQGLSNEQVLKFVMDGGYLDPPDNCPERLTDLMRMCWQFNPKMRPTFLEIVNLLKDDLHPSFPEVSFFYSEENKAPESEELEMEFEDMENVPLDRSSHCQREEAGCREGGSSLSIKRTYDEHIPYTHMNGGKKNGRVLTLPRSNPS
Chain of Delta-type opioid receptor (P41143 whole entry): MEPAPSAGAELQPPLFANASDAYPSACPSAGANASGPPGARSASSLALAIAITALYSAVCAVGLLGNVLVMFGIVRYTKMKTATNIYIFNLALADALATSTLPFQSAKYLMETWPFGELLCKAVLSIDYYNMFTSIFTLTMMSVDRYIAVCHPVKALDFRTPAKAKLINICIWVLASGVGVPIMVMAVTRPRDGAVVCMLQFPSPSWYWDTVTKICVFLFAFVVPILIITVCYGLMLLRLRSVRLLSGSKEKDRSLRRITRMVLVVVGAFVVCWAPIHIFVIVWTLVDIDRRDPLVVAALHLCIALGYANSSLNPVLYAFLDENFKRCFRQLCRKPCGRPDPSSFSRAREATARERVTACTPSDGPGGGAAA
Chain of Sigma non-opioid intracellular receptor 1 (Q99720 whole entry): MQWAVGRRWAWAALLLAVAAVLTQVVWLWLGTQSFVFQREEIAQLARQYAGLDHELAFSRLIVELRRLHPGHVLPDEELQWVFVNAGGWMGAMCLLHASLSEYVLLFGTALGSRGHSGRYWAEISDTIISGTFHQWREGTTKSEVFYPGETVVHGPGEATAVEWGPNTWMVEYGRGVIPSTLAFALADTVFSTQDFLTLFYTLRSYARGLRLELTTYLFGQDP

CC(=O)OCC(=O)[C@@]1(O)CC[C@H]2[C@@H]3CCC4=CC(=O)CC[C@]4(C)[C@H]3C(=O)C[C@@]21C [CORTISONE ACETATE]
Not Active: IC50 [1] | IC50 (Insulin receptor) | IC50 (Leukotriene C4 synthase) | IC50 [2] | IC50 (Mu-type opioid receptor) | IC50 [3] | IC50 (Cytochrome P450 2A6) | Ki (Cytochrome P450 2A6)

O=c1ccc2ccccc2o1 [COUMARIN]
Not Active: IC50 [1] | IC50 (Insulin receptor) | IC50 (Leukotriene C4 synthase) | IC50 [2] | IC50 (Mu-type opioid receptor) | IC50 [3] | IC50 (Cytochrome P450 2A6) | Ki (Cytochrome P450 2A6)

CN(C)/N=N/c1[nH]cnc1C(N)=O [DACARBAZINE]
Not Active: IC50 [1] | IC50 (Insulin receptor) | IC50 (Leukotriene C4 synthase) | IC50 [2] | IC50 (Mu-type opioid receptor) | IC50 [3] | IC50 (Cytochrome P450 2A6) | Ki (Cytochrome P450 2A6)

COc1ccc2c(c1)[C@]13CCCC[C@@H]1[C@H](C2)N(C)CC3 [DEXTROMETHORPHAN]
Not Active: IC50 [1] | IC50 (Insulin receptor) | IC50 (Leukotriene C4 synthase) | IC50 [2] | IC50 (Mu-type opioid receptor) | IC50 [3] | IC50 (Cytochrome P450 2A6) | Ki (Cytochrome P450 2A6)

CC(=O)Nc1c(I)c(NC(C)=O)c(I)c(C(=O)O)c1I [DIATRIZOIC ACID]
Not Active: IC50 [1] | IC50 (Insulin receptor) | IC50 (Leukotriene C4 synthase) | IC50 [2] | IC50 (Mu-type opioid receptor) | IC50 [3] | IC50 (Cytochrome P450 2A6) | Ki (Cytochrome P450 2A6)

O=C(O)Cc1ccccc1Nc1c(Cl)cccc1Cl [DICLOFENAC]
Not Active: IC50 [1] | IC50 (Insulin receptor) | IC50 (Leukotriene C4 synthase) | IC50 [2] | IC50 (Mu-type opioid receptor) | IC50 [3] | IC50 (Cytochrome P450 2A6) | Ki (Cytochrome P450 2A6)

C[C@H]1O[C@@H](O[C@H]2[C@@H](O)C[C@H](O[C@H]3[C@@H](O)C[C@H](O[C@H]4CC[C@@]5(C)[C@H](CC[C@@H]6[C@@H]5CC[C@]5(C)[C@@H](C7=CC(=O)OC7)CC[C@]65O)C4)O[C@@H]3C)O[C@@H]2C)C[C@H](O)[C@@H]1O [DIGITOXIN]
Not Active: IC50 [1] | IC50 (Insulin receptor) | IC50 (Leukotriene C4 synthase) | IC50 [2] | IC50 (Mu-type opioid receptor) | IC50 [3] | IC50 (Cytochrome P450 2A6) | Ki (Cytochrome P450 2A6)

CCN1CC(CCN2CCOCC2)C(c2ccccc2)(c2ccccc2)C1=O (stereo not given) [DOXAPRAM]
Not Active: IC50 [1] | IC50 (Insulin receptor) | IC50 (Leukotriene C4 synthase) | IC50 [2] | IC50 (Mu-type opioid receptor) | IC50 [3] | IC50 (Cytochrome P450 2A6) | Ki (Cytochrome P450 2A6)

Cn1c(=O)c2c(ncn2CC2OCCO2)n(C)c1=O [DOXOFYLLINE]
Not Active: IC50 [1] | IC50 (Insulin receptor) | IC50 (Leukotriene C4 synthase) | IC50 [2] | IC50 (Mu-type opioid receptor) | IC50 [3] | IC50 (Cytochrome P450 2A6) | Ki (Cytochrome P450 2A6)

COc1cccc2c1C(=O)c1c(O)c3c(c(O)c1C2=O)C[C@@](O)(C(=O)CO)C[C@@H]3O[C@H]1C[C@H](N)[C@H](O)[C@H](C)O1 [DOXORUBICIN]
Not Active: IC50 [1] | IC50 (Insulin receptor) | IC50 (Leukotriene C4 synthase) | IC50 [2] | IC50 (Mu-type opioid receptor) | IC50 [3] | IC50 (Cytochrome P450 2A6) | Ki (Cytochrome P450 2A6)

COc1cccc2c1C(=O)c1c(O)c3c(c(O)c1C2=O)C[C@@](O)(C(=O)CO)C[C@@H]3O[C@H]1C[C@H](N)[C@@H](O)[C@H](C)O1 [EPIRUBICIN]
Not Active: IC50 [1] | IC50 (Insulin receptor) | IC50 (Leukotriene C4 synthase) | IC50 [2] | IC50 (Mu-type opioid receptor) | IC50 [3] | IC50 (Cytochrome P450 2A6) | Ki (Cytochrome P450 2A6)

C[C@]12CC[C@@H]3c4ccc(OC(=O)c5ccccc5)cc4CC[C@H]3[C@@H]1CC[C@@H]2O [ESTRADIOL BENZOATE]
Not Active: IC50 [1] | IC50 (Insulin receptor) | IC50 (Leukotriene C4 synthase) | IC50 [2] | IC50 (Mu-type opioid receptor) | IC50 [3] | IC50 (Cytochrome P450 2A6) | Ki (Cytochrome P450 2A6)

C[C@]12CC[C@@H]3c4ccc(O)cc4CC[C@H]3[C@@H]1CC[C@@H]2O [ESTRADIOL]
Not Active: IC50 [1] | IC50 (Insulin receptor) | IC50 (Leukotriene C4 synthase) | IC50 [2] | IC50 (Mu-type opioid receptor) | IC50 [3] | IC50 (Cytochrome P450 2A6) | Ki (Cytochrome P450 2A6)

CC[C@@H](CO)NCCN[C@@H](CC)CO [ETHAMBUTOL]
Not Active: IC50 [1] | IC50 (Insulin receptor) | IC50 (Leukotriene C4 synthase) | IC50 [2] | IC50 (Mu-type opioid receptor) | IC50 [3] | IC50 (Cytochrome P450 2A6) | Ki (Cytochrome P450 2A6)

CC1(C)O[C@@H]2C[C@H]3[C@@H]4C[C@H](F)C5=CC(=O)C=C[C@]5(C)[C@H]4[C@@H](O)C[C@]3(C)[C@]2(C(=O)CO)O1 [FLUNISOLIDE]
Not Active: IC50 [1] | IC50 (Insulin receptor) | IC50 (Leukotriene C4 synthase) | IC50 [2] | IC50 (Mu-type opioid receptor) | IC50 [3] | IC50 (Cytochrome P450 2A6) | Ki (Cytochrome P450 2A6)
